According to US9586969B2, “Microbiocidal heterobicyclic derivatives” (Syngenta Participations AG, priority 2014, dated 2017):

Assays:
Type in all cases: cell-based
[1] = system: Botryotinia fuckeliana (Botrytis cinerea); test: Botryotinia fuckeliana (Botrytis cinerea) / liquid culture (Gray mould); details: 72 h, 200 ppm, liquid culture, 24° C., inhibition of growth determined photometrically 3-4 days after application, vs untreated control, read-out: disease control
[2] = system: Fusarium culmorum; test: microbe, parasite or virus in culture; details: 72 h, read-out: disease control
[3] = system: Glomerella lagenarium (Colletotrichum lagenarium); test: Glomerella lagenarium (Colletotrichum lagenarium) / liquid culture (Anthracnose); details: Colletotrichum orbiculare; 200 ppm; liquid culture, 24° C., inhibition of growth measured photometrically 3-4 days after application; vs untreated control; read-out: disease control
[4] = system: Monographella nivalis (Microdochium nivale); test: Monographella nivalis (Microdochium nivale) / liquid culture (Foot rot cereals); details: 96 h, 200 ppm, liquid culture, 24° C., inhibition of growth determined photometrically 4-5 days after application, vs untreated control, read-out: disease control
[5] = system: Mycosphaerella graminicola (Septoria tritici); test: Mycosphaerella graminicola (Septoria tritici) / liquid culture (Septoria blotch); details: Zymoseptoria tritici, 96 h, liquid culture, 24° C., inhibition of growth determined photometrically 4-5 days after application, vs untreated control, read-out: disease control
[6] = system: Gaeumannomyces graminis; test: Gaeumannomyces graminis / liquid culture (Take-all of cereals); details: 96 h, liquid culture, 24° C., inhibition of growth determined photometrically 4-5 days after application, vs untreated control, read-out: disease control

Measured: inhibition of growth at 200 ppm

CC1(C)Cc2c(F)cccc2C(c2cnn3c(F)ccc3c2)=N1 [E 7, 5-fluoro-1-(7-fluoro-pyrrolo[1,2-b]pyridazin-3-yl)-3,3-dimethyl-3,4-dihydro-isoquinoline]
≥ 80%: [1] | [2] | [3] | [4]

CC1(C)Cc2c(Cl)cccc2C(c2cnn3cccc3c2)=N1 [E 6]
≥ 80%: [1] | [2] | [3] | [4]

CC1(C)Cc2c(I)cccc2C(c2cnn3cccc3c2)=N1 [E 29]
not listed: [6]
≥ 80%: all other assays above

CC1(C)N=C(c2cnn3c(F)c(F)cc3c2)c2cccc(F)c2C1(C)C [E 75]
≥ 80%: [1] | [2] | [6] | [3]

Cc1nn2cccc2cc1C1=NC(C)(C)C(C)(C)c2c1ccc(F)c2F [E 80]
≥ 80%: [1] | [2] | [3] | [4]

CC1(C)Cc2c(F)cccc2C(c2cnn3c(Br)ccc3c2)=N1 [E 17]
≥ 80%: [1] | [6] | [3] | [4]

CC1(C)N=C(c2cnn3c(Br)ccc3c2)c2cccc(F)c2C1(C)C [E 42]
not listed: [5]
≥ 80%: all other assays above

CC1(C)Cc2ccccc2C(c2cnn3c(F)ccc3c2)N1 (stereo not drawn) [E 21]
≥ 80%: [1] | [6] | [3]

Cc1ccc2cc(C3=NC(C)(C)C(C)(C)c4c(F)cccc43)cnn12 [E 53]
≥ 80%: [1] | [2] | [3] | [4]

C#CCOc1cccc2c1CC(C)(C)N=C2c1cnn2cccc2c1 [E 54]
≥ 80%: [1] | [6]

Cc1ccc2cc(C3=NC(C)(C)Cc4c(F)cccc43)cnn12 [E 26]
≥ 80%: [1] | [2] | [3] | [4]

CC1(C)Cc2c(cccc2C(F)F)C(c2cnn3cccc3c2)=N1 [E 32]
≥ 80%: [1] | [2] | [3] | [4]

CC1(C)Cc2c(Oc3ccccc3)cccc2C(c2cnn3cccc3c2)=N1 [E 60]
not listed: [6]
≥ 80%: all other assays above

Cc1nn2cccc2cc1C1=NC(C)(C)C(C)(C)c2cc(F)ccc21 [E 78]
≥ 80%: [1] | [2] | [3]

CC1(C)Cc2c(Br)cccc2C(c2cnn3c(F)ccc3c2)=N1 [E 9]
≥ 80%: [1] | [2] | [3] | [4]

CC1(C)Cc2c(C#N)cccc2C(c2cnn3c(F)ccc3c2)=N1 [E 22]
≥ 80%: [1] | [2] | [3] | [4]

CC1(C)N=C(c2cnn3cccc3c2)c2ccccc2C1(C)C [E 61]
≥ 80%: [1] | [2] | [3]

CC1(C)Cc2c(C#N)cccc2C(c2cnn3cccc3c2)=N1 [E 58]
≥ 80%: [1] | [2] | [3]

CC1(C)N=C(c2cnn3cccc3c2)c2cccc(F)c2C1(C)C [E 1]
≥ 80%: [1] | [6] | [3] | [4]

CC1(C)N=C(c2cnn3cc(F)cc3c2)c2cccc(F)c2C1(C)C [E 74]
≥ 80%: [1] | [2] | [3] | [4]

Cc1nn2c(Br)ccc2cc1C1=NC(C)(C)C(C)(C)c2c(F)cccc21 [E 84]
not listed: [5]
≥ 80%: all other assays above

CC1(C)N=C(c2cnn3c(F)cc(I)c3c2)c2cccc(F)c2C1(C)C [E 24]
not listed: [6]
≥ 80%: all other assays above

CC1(C)Cc2c(Oc3ccccn3)cccc2C(c2cnn3cccc3c2)=N1 [E 31]
≥ 80%: [1] | [6]

CC1(C)N=C(c2cnn3c(I)cc(I)c3c2)c2cccc(F)c2C1(C)C [E 38]
≥ 80%: [1] | [4] | [5]

CC1(C)N=C(c2cnn3cccc3c2)c2ccccc2C1(F)F [E 71]
≥ 80%: [1] | [2] | [3] | [4]

CC1(C)N=C(c2cnn3c(C#N)ccc3c2)c2cccc(F)c2C1(C)C [E 52]
≥ 80%: [1] | [2] | [3] | [4]

CC1(C)N=C(c2cnn3cccc3c2)c2ccc(F)c(F)c2C1(C)C [E 73]
≥ 80%: [1] | [2] | [3] | [4]

Cc1c(C2=NC(C)(C)C(C)(C)c3cc(F)ccc32)cnn2cccc12 [E 79]
≥ 80%: [1] | [2] | [3]

CC1(C)Cc2c(Br)cccc2C(c2cnn3cccc3c2)=N1 [E 5]
not listed: [6]
≥ 80%: all other assays above

CC1(C)N=C(c2cnn3cccc3c2)c2ccc(F)cc2C1(C)C [E 72]
≥ 80%: [1] | [2] | [3] | [4]

CC1(C)Cc2c(F)cccc2C(c2cnn3c(F)cc(Br)c3c2)=N1 [E 15]
not listed: [2]
≥ 80%: all other assays above

Cc1cc(F)n2ncc(C3=NC(C)(C)Cc4c(F)cccc43)cc12 [E 18]
not listed: [2]
≥ 80%: all other assays above

Cc1cnc2cc(C3=NC(C)(C)C(F)(F)c4c(F)cccc43)cnn12 [E 90]
≥ 80%: [1] | [2] | [3] | [4]

CC1(C)N=C(c2cnn3c(F)ccc3c2)c2cccc(F)c2C1(C)C [E 2]
not listed: [5]
≥ 80%: all other assays above
